Laboratory results reported in patent publication US20040186072A1, “Use of esters of long-chain fatty acids for treatment of autoimmune diseases” (priority 2001, published 2004).

Assays:
[1] = system: EAE induced by PLP 139-151 peptide in SJL/J mice; test: EAE induced by PLP 139-151/CFA in SJL/J mice, clinical score 0-5; type: in vivo; conditions: for mean clinical score on day 22: Example 5: 100 μl s.c. daily from day 11, PBS control 2.5±0.84
[2] = system: EAE induced with mouse spinal cord homogenate (MSCH); test: EAE induced by mouse spinal cord homogenate (MSCH)/CFA in SJL/J mice; type: in vivo; conditions: for clinical severity: 100 μl s.c. daily from day 4, all control mice had died by day 15, FIG. 6
[3] = stated as known; cited from earlier work
[4] = Example 2: 100 μl i.p. daily day 0-50, followed until day 70

## mannide mono-oleate [MMO]
[1]; Example 3: 100 μl i.p. daily from day 0, FIG. 3
  effect on disease development: completely abrogated disease development
[1]; Example 3: i.p. daily day 0-25, 15 days after injections stopped, control 2.6±0.99
  mean maximal clinical score on day 40: 0.17±0.11
[1]; Example 3: i.p. daily day 0-25, 48 days after injections stopped, control 3.2±0.75
  mean maximal clinical score on day 73: 0.67±0.44
[1]; Example 3: i.p. daily day 0-25, from day 25 on
  mice in which very mild clinical signs appeared after treatment was discontinued: 3 out of the 6
[1]; Example 3: i.p. daily from day 0, all 6 treated mice, control score 3.4±0.69
  clinical signs on day 20: free of any clinical sign of EAE
[1]
  mean clinical score on day 22: 0.08±0.08
[2]; 100 μl s.c. daily from day 4, FIG. 6
  disease development: almost complete abrogation of disease development
[2]
  clinical severity: markedly reduced clinical severity
[3]
  toxicity when injected into humans: non-toxic when injected into humans

## CCCCCCCC/C=C\CCCCCCCC(=O)OCC [EOA, ethyl oleate]
[1]; Example 1: EOA 100 μl s.c. daily day 0-11, then days 13, 15, 17, 20, 23, 26, untreated control 5 out of 5
  mice that developed EAE (incidence): 2 out of the 5
[1]; Example 1: EOA 100 μl s.c. from day 0, control 1.67±0.29
  mean maximal severity (clinical score 0-5): 0.5±0.32
[1]; Example 1: s.c. from day 0, FIG. 1
  effect on clinical severity and incidence of EAE: significantly reduced clinical severity and incidence of EAE
[1]; [4]
  mean maximal clinical score (0-5): 0.63±0.28
  mice that developed EAE (incidence): 5 out of 8
[1]; Example 2: i.p. daily day 0-50, treatment stopped day 50
  time mice remained stable after cessation of treatment: 20 days
[1]; Example 4: 100 μl i.p. daily from day 12 (clinical onset) to day 35, control 3.5±0.69
  maximal mean score at which disease progression was arrested: 0.83±0.53
[1]; Example 4: daily i.p. treatment reinstated from day 40 for 40 days, FIG. 4C, untreated control 3.1±0.7
  mean maximal clinical score, partially recovered subgroups (EOA-P, IFA-P): 1.3±0.19
[1]; Example 4: i.p. daily day 12-35, FIG. 4A
  therapeutic effect on ongoing EAE: immediately arrested the worsening of the clinical symptoms of EAE
[1]; Example 4: i.p. daily day 12-35, then no treatment
  state on day 40 after withholding treatment: remained stable with no evidence of disease exacerbation or development of relapses
[1]; Example 4: i.p. daily from day 12
  time to complete reversal of clinical symptoms after treatment was initiated: 8 to 10 days
[1]; Example 4: i.p. daily from day 12, control 3.5±0.69
  mean maximal clinical score on days 20-21: 0.17±0.11
[1]; Example 4: partially recovered subgroups, daily i.p. from day 40
  effect of second course of treatment on clinical signs: no further ameliorating effect
[1]
  mean clinical score on day 22: 0.83±0.40
[2]
  clinical severity: markedly reduced clinical severity
[3]
  toxicity when injected into humans: non-toxic when injected into humans
